According to US20170064953A1, “HERBICIDAL COMPOSITIONS CONTAINING 4-AMINO-3-CHLORO-6-(4-CHLORO-2-FLUORO-3-METHOXYPHENYL) PYRIDINE-2-CARBOXYLIC ACID OR A DERIVATIVE THEREOF, A TRIAZOLOPYRIMIDINE SULFONAMIDE HERBICIDE OR A DERIVATIVE THEREOF, AND GLYPHOSATE OR A DERIVATIVE THEREOF” (Dow AgroSciences LLC, priority 2015, published 2017):
Where “and” joins values, the source holds several entries; their conditions need not be identical. Identical values can stand only once. Counter-ions that a name gives are not always drawn.

Columns and labels:
Assay in all cases: Field trial, postemergence herbicidal activity, foliar applied, visual rating
Type in all cases: in vivo
[1] = tested on: Commelina benghalensis (hairy wandering Jew, COMBE); details: 35DAA, 960 g ai/ha
Description: (§1) Treatments consisted of the methyl ester of 4-amino-3-chloro-6-(4-chloro-2-fluoro-3-methoxyphenyl)pyridine-2-carboxylic acid (Cmpd 1) and diclosulam in combination as GF-3220. […] Glyphosate dimethylammonium salt was applied as various commercial formulations containing 480 grams acid equivalent per liter (g ae/L).
(§2) Field trials were conducted under standard field conditions. Plot sizes varied from 3-4 meters (m) wide by 5-10 m long. Treatments were applied with small plot backpack sprayers, using pressurized carbon dioxide (CO2) as propellant. Pressure varied from 30-50 pounds per square inch (PSI), with spray tips typically of a Flat Fan type applying water diluent at 100-150 liters per hectare (L/ha). Boom sizes varied from 3-4 m in width. Weed sizes varied, but all treatments were applied as post-emergence treatments to weeds from 2 leaf to 2 tiller growth stages varying from 2-15 inches in height. No additional adjuvant was mixed with the treatments applied in the field.
(§3) The weed spectrum included, but was not limited to, Commelina benghalensis (hairy wandering Jew, COMBE), Echinochloa crus-galli (barnyardgrass, ECHCG), Euphorbia heterophylla (wild poinsettia, EPHHL), Conyza bonariensis (hairy fleabane, ERIBO), Conyza canadensis (horseweed, ERICA), Conyza sumatrensis (Guernsey fleabane, ERISU) and Ipomoea grandifolia (Corda-de-viola, IAQGR).
(§4) The values reported are percent (%) control visually rated. The predicted percent (%) weed control was determined using Colby's equation.

[2] = tested on: Conyza bonariensis (hairy fleabane, ERIBO); details: 960 g ai/ha
Description: as §1, §2, §3, §4

[3] = tested on: Conyza canadensis (horseweed, ERICA); details: 1200 g ai/ha
Description: as §1, §2, §3, §4

[4] = tested on: Conyza sumatrensis (Guernsey fleabane, ERISU); details: 1200 g ai/ha
Description: as §1, §2, §3, §4

[5] = tested on: Echinochloa crus-galli (barnyardgrass, ECHCG); details: 1200 g ai/ha
Description: as §1, §2, §3, §4

[6] = tested on: Euphorbia heterophylla (wild poinsettia, EPHHL); details: 960 g ai/ha
Description: as §1, §2, §3, §4

[7] = tested on: Ipomoea grandifolia (Corda-de-viola, IAQGR); details: 960 g ai/ha
Description: as §1, §2, §3, §4

With O=C(O)CNCP(=O)(O)O [Glyphosate DMA salt, N-(phosphonomethyl)glycine] the “Mean % weed control” value [1] was 62.0%, the “Mean % weed control” value ([2]; 9DAA) was 11.7% and 10.0% and the “Mean % weed control” value ([2]; 12DAA) was 43.3%. For the same compound, the “Mean % weed control” value ([2]; 14DAA) was 40.0% and 36.7% and 23.3%, the “Mean % weed control” value ([2]; 15DAA) was 48.3% and the “Mean % weed control” value ([2]; 23DAA) was 31.7%. The “Mean % weed control” value ([2]; 35DAA) was 25.0%, the “Mean % weed control” value ([2]; 40DAA) was 46.7% and the “Mean % weed control” value ([2]; 54DAA) was 23.3%. The “Mean % weed control” value ([2]; 67DAA) was 20.0%, the “Mean % weed control” value ([3]; 30DAA) was 28.8% and the “Mean % weed control” value ([3]; 32DAA) was 32.5%. The “Mean % weed control” value ([3]; 46DAA) was 25.0%, the “Mean % weed control” value ([3]; 47DAA) was 28.8% and the “Mean % weed control” value ([3]; 62DAA) was 20.0%. The “Mean % weed control” value ([4]; 19DAA) was 19.0%, the “Mean % weed control” value ([4]; 29DAA) was 17.0% and the “Mean % weed control” value ([4]; 46DAA) was 15.7%. For the same compound, the “Mean % weed control” value ([5]; 18DAA) was 16.7%, the “Mean % weed control” value ([5]; 38DAA) was 16.7% and the “Mean % weed control” value ([6]; 7DAA) was 38.8%. The “Mean % weed control” value ([6]; 14DAA) was 52.5%, the “Mean % weed control” value ([6]; 28DAA) was 18.8% and the “Mean % weed control” value ([6]; 35DAA) was 7.5%. For the same compound, the “Mean % weed control” value ([7]; 14DAA) was 40.0%, the “Mean % weed control” value ([7]; 19DAA) was 43.8% and the “Mean % weed control” value ([7]; 28DAA) was 45.0%. For the same compound, the “Mean % weed control” value ([7]; 35DAA) was 53.8% and the “Mean % weed control” value ([7]; 42DAA) was 48.8%.
